System: brain cell types
Assay: In vivo two-photon imaging of mouse cortex after topical cortical administration of fluorophores
Conditions: for endothelial cell labeling/uptake after topical application to the brain: topical cortical application; for Target: cell type taking up the compound in vivo (Table 1)
Protocol: Briefly, animals are anaesthetized via intraperitoneal injections of ketamine/xylazine or via inhaled isoflurane. A region of the skull (3×3 mm) is gently removed with a high-speed drill and the underlying dura is removed. A small glass coverslip is placed over the skull to allow long term optical access for in vivo imaging. Labeling with fluorescent dyes is performed either via intravenous injections or topically application to the cortical surface for 20 min prior to glass cover placement. After recovery, in vivo images are acquired using a two-photon microscope (Bruker Technologies) equipped with a multimodal (fixed wavelength 1040 nm and tunable wavelength) InSight X3 two-photon laser (Spectra Physics) and 20× water immersion objective (Zeiss 1.0N.A.). The two-photon laser is appropriately tuned to excite particular fluorescent dyes and proteins as needed. In selected cases, following in vivo imaging, mice will be sacrificed and perfused for follow up immunohistochemistry and high-resolution confocal imaging (Leica SP8) to further confirm colocalization of dyes and cells expressing particular transporters.
One-month-old wild-type mice were anesthetized using a ketamine/xylazine solution at doses of 100 mg/kg and 10 mg/kg, respectively. The fur around the skull area was shaved, and buprenex (0.1 mg per kg) and carprofen (5 mg per kg) were administered subcutaneously. Mice were kept on a heating pad at 37° C., and anesthesia was periodically monitored. The skin was treated with povidone-iodine solution, followed by cleaning with ethanol, and eye ointment was applied. A small skin section was excised to expose the skull. Thinning of the skull was performed in a circular area, followed by delicately lifting of the remaining skull without harm to the underlying brain. Within the circular region, the dura was gently removed using fine forceps, and a 4 mm cover glass was softly pressed onto the brain surface and affixed to the skull. Fluorescent dyes were applied either through intravenous injections or topically to the cortical surface for 20 minutes before placing the glass cover. A customized head bar was attached either by adhesive (for acute imaging) or permanently implanted (using dental cement, for chronic imaging) onto the skull. Mice were imaged under a two-photon microscope (Prairie Technologies) with a mode-locked MaiTai tunable laser (Spectra Physics). Imaging was performed with a 20× water immersion objective (Zeiss, 1.0NA). Images were captured at depths up to 300 μm from the pial surface using excitation wavelengths ranging from 750 to 950 nm as previously described. Mice undergoing chronic imaging received a recovery period on a heating pad post-surgery, and buprenex (0.1 mg per kg) and carprofen (5 mg per kg) were administered for 3 days.
Batches of 10 compounds were applied through the craniotomy to the cortical surface before placing a cover glass window. No additional washings were performed, and the cover glass was placed, allowing up to 3 hours of imaging of the cortical surface with a two-photon microscope. Following imaging, the data were analyzed to identify potential patterns of cell-specific labeling. […] Positive batches underwent three additional rounds of imaging, with each batch being sequentially split, until a single compound displaying cell-type-specific labeling was identified. As these compounds were not initially purified, the labeling may have resulted from fluorescent byproducts of synthesis. Consequently, large-scale synthesis, purification and characterization (FIGS. 29A-29D) of the identified compounds were conducted. The purified compounds were subsequently retested using in vivo imaging to confirm cell type specificity.
It was reasoned that the best strategy to identify fluorophores with specific affinity to certain cell types and transport mechanisms would be by direct screening in the intact in vivo brain microenvironment. […]

With `CN(Cc1cnc2nc(NS(=O)(=O)c3ccc(C4=c5cc6c7c(c5Oc5cc(Br)ccc54)CCC[N+]=7CCC6)c(S(=O)(=O)[O-])c3)nc(N)c2n1)c1ccc(C(=O)N[C@@H](CCC(=O)O)C(=O)O)cc1` [52a/52b] the “endothelial cell labeling/uptake after topical application to the brain” value (from here on “endothelial cell labeling/uptake”) was “very strong”.

In the case of `O=S(=O)([O-])c1cc(S(=O)(=O)O)ccc1C1=c2cc3c4c(c2Oc2cc(F)ccc21)CCC[N+]=4CCC3` [Compound 2, 2-(12-fluoro-1,2,3,5,6,7-hexahydrochromeno[2,3-f]pyrido[3,2,1-ij]quinolin-4-ium-9-yl)-5-sulfobenzenesulfonate], the Target is reported as “Endothelial” and the “endothelial cell labeling/uptake” value is reported as “selectively labeling endothelial cells in vivo”.

With `O=S(=O)([O-])c1cc(S(=O)(=O)O)ccc1C1=c2cc3c4c(c2Oc2cc(Cl)ccc21)CCC[N+]=4CCC3` [Compound 3, 2-(12-chloro-1,2,3,5,6,7-hexahydrochromeno[2,3-f]pyrido[3,2,1-ij]quinolin-4-ium-9-yl)-5-sulfobenzenesulfonate] the Target was “Endothelial”.

For `O=S(=O)([O-])c1cc(S(=O)(=O)O)ccc1C1=c2cc3c4c(c2Oc2cc(I)ccc21)CCC[N+]=4CCC3` [Compound 4, 2-(12-iodo-1,2,3,5,6,7-hexahydrochromeno[2,3-f]pyrido[3,2,1-ij]quinolin-4-ium-9-yl)-5-sulfobenzenesulfonate], the Target was “Endothelial” and the “endothelial cell labeling/uptake” value was “selectively labeling endothelial cells in vivo”.

With `O=S(=O)([O-])c1cc(S(=O)(=O)O)ccc1C1=c2cc3c4c(c2Oc2c(Br)cccc21)CCC[N+]=4CCC3` [Compound 5, 2-(13-bromo-1,2,3,5,6,7-hexahydrochromeno[2,3-f]pyrido[3,2,1-ij]quinolin-4-ium-9-yl)-5-sulfobenzenesulfonate] the Target was “Endothelial”.

For `O=S(=O)([O-])c1cc(S(=O)(=O)O)ccc1C1=c2cc3c4c(c2Oc2ccc(Br)cc21)CCC[N+]=4CCC3` [Compound 6, 2-(11-bromo-1,2,3,5,6,7-hexahydrochromeno[2,3-f]pyrido[3,2,1-ij]quinolin-4-ium-9-yl)-5-sulfobenzenesulfonate], the Target was “Endothelial”.

`O=S(=O)([O-])c1cc(S(=O)(=O)O)ccc1C1=c2cc3c4c(c2Oc2c(Br)cc(Br)cc21)CCC[N+]=4CCC3` [Compound 7, 2-(11,13-dibromo-1,2,3,5,6,7-hexahydrochromeno[2,3-f]pyrido[3,2,1-ij]quinolin-4-ium-9-yl)-5-sulfobenzenesulfonate] was tested, and the Target was “Endothelial”.

In the case of `O=S(=O)([O-])c1cc(S(=O)(=O)O)ccc1C1=c2cc3c4c(c2Oc2cc(F)c(F)cc21)CCC[N+]=4CCC3` [Compound 8, 2-(11,12-difluoro-1,2,3,5,6,7-hexahydrochromeno[2,3-f]pyrido[3,2,1-ij]quinolin-4-ium-9-yl)-5-sulfobenzenesulfonate], the Target is reported as “Endothelial”.

In the case of `O=S(=O)([O-])c1cc(S(=O)(=O)O)ccc1C1=c2cc3c4c(c2Oc2cc(F)c(Cl)cc21)CCC[N+]=4CCC3` [Compound 9, 2-(11-chloro-12-fluoro-1,2,3,5,6,7-hexahydrochromeno[2,3-f]pyrido[3,2,1-ij]quinolin-4-ium-9-yl)-5-sulfobenzenesulfonate], the Target is reported as “Endothelial”.

In the case of `O=S(=O)([O-])c1cc(S(=O)(=O)O)ccc1C1=c2cc3c4c(c2Oc2cc(F)c(Br)cc21)CCC[N+]=4CCC3` [Compound 10, 2-(11-bromo-12-fluoro-1,2,3,5,6,7-hexahydrochromeno[2,3-f]pyrido[3,2,1-ij]quinolin-4-ium-9-yl)-5-sulfobenzenesulfonate], the Target is reported as “Endothelial”.

With `O=S(=O)([O-])c1cc(S(=O)(=O)O)ccc1C1=c2cc3c4c(c2Oc2cc(Cl)c(F)cc21)CCC[N+]=4CCC3` [Compound 11, 2-(12-chloro-11-fluoro-1,2,3,5,6,7-hexahydrochromeno[2,3-f]pyrido[3,2,1-ij]quinolin-4-ium-9-yl)-5-sulfobenzenesulfonate] the Target was “Endothelial”.

`O=S(=O)([O-])c1cc(S(=O)(=O)O)ccc1C1=c2cc3c4c(c2Oc2cc(Cl)c(Cl)cc21)CCC[N+]=4CCC3` [Compound 12, 2-(11,12-dichloro-1,2,3,5,6,7-hexahydrochromeno[2,3-f]pyrido[3,2,1-ij]quinolin-4-ium-9-yl)-5-sulfobenzenesulfonate] was tested, and the Target was “Endothelial”.

`O=S(=O)([O-])c1cc(S(=O)(=O)O)ccc1C1=c2cc3c4c(c2Oc2cc(Cl)c(Br)cc21)CCC[N+]=4CCC3` [Compound 13, 2-(11-bromo-12-chloro-1,2,3,5,6,7-hexahydrochromeno[2,3-f]pyrido[3,2,1-ij]quinolin-4-ium-9-yl)-5-sulfobenzenesulfonate] was tested, and the Target was “Endothelial”.

`O=S(=O)([O-])c1cc(S(=O)(=O)O)ccc1C1=c2cc3c4c(c2Oc2cc(Br)c(F)cc21)CCC[N+]=4CCC3` [Compound 14, 2-(12-bromo-11-fluoro-1,2,3,5,6,7-hexahydrochromeno[2,3-f]pyrido[3,2,1-ij]quinolin-4-ium-9-yl)-5-sulfobenzenesulfonate] was tested, and the Target was “Endothelial”.

`O=S(=O)([O-])c1cc(S(=O)(=O)O)ccc1C1=c2cc3c4c(c2Oc2cc(Br)c(Cl)cc21)CCC[N+]=4CCC3` [Compound 15, 2-(12-bromo-11-chloro-1,2,3,5,6,7-hexahydrochromeno[2,3-f]pyrido[3,2,1-ij]quinolin-4-ium-9-yl)-5-sulfobenzenesulfonate] was tested, and the Target was “Endothelial”.

In the case of `O=S(=O)([O-])c1cc(S(=O)(=O)O)ccc1C1=c2cc3c4c(c2Oc2cc(I)c(Cl)cc21)CCC[N+]=4CCC3` [Compound 16, 2-(11-chloro-12-iodo-1,2,3,5,6,7-hexahydrochromeno[2,3-f]pyrido[3,2,1-ij]quinolin-4-ium-9-yl)-5-sulfobenzenesulfonate], the Target is reported as “Endothelial”.

With `O=S(=O)([O-])c1cc(S(=O)(=O)O)ccc1C1=c2cc3c4c(c2Oc2c1ccc(F)c2F)CCC[N+]=4CCC3` [Compound 19, 2-(12,13-difluoro-1,2,3,5,6,7-hexahydrochromeno[2,3-f]pyrido[3,2,1-ij]quinolin-4-ium-9-yl)-5-sulfobenzenesulfonate] the Target was “Endothelial”.

`O=S(=O)([O-])c1cc(S(=O)(=O)O)ccc1C1=c2cc3c4c(c2Oc2c1ccc(Cl)c2F)CCC[N+]=4CCC3` [Compound 20, 2-(12-chloro-13-fluoro-1,2,3,5,6,7-hexahydrochromeno[2,3-f]pyrido[3,2,1-ij]quinolin-4-ium-9-yl)-5-sulfobenzenesulfonate] was tested, and the Target was “Endothelial”.

In the case of `O=S(=O)([O-])c1cc(S(=O)(=O)O)ccc1C1=c2cc3c4c(c2Oc2c1ccc(Br)c2F)CCC[N+]=4CCC3` [Compound 21, 2-(12-bromo-13-fluoro-1,2,3,5,6,7-hexahydrochromeno[2,3-f]pyrido[3,2,1-ij]quinolin-4-ium-9-yl)-5-sulfobenzenesulfonate], the Target is reported as “Endothelial”.

`O=S(=O)([O-])c1cc(S(=O)(=O)O)ccc1C1=c2cc3c4c(c2Oc2c1ccc(F)c2Cl)CCC[N+]=4CCC3` [Compound 22, 2-(13-chloro-12-fluoro-1,2,3,5,6,7-hexahydrochromeno[2,3-f]pyrido[3,2,1-ij]quinolin-4-ium-9-yl)-5-sulfobenzenesulfonate] was tested, and the Target was “Endothelial”.

In the case of `O=S(=O)([O-])c1cc(S(=O)(=O)O)ccc1C1=c2cc3c4c(c2Oc2c1ccc(Cl)c2Cl)CCC[N+]=4CCC3` [Compound 23, 2-(12,13-dichloro-1,2,3,5,6,7-hexahydrochromeno[2,3-f]pyrido[3,2,1-ij]quinolin-4-ium-9-yl)-5-sulfobenzenesulfonate], the Target is reported as “Endothelial”.
